Measured values reported in patent US9499553B2 (CHUGAI SEIYAKU KABUSHIKI KAISHA, priority 2013, dated 2016).
Where a name gives a salt, the structure may show the parent alone. Read-outs that look alike come from different tables or passages of the source.

How the values were obtained:
[1] = tested on: rat small-intestinal brush border membrane vesicles; assay: Inhibitory effect on 33PO4 uptake into rat small-intestinal brush border membrane vesicles (rapid filtration method); format: biochemical; details: 1 μM test compound; 33PO4 uptake into rat small-intestinal BBMVs, reacted for 60 seconds
Description: Test Example 1: Inhibitory Effect on ^33PO4 Uptake into Rat Small-Intestinal Brush Border Membrane Vesicles Brush border membrane vesicles (BBMVs) were prepared using the upper region of the small intestine of each Wistar female rat (4-5 weeks old). The preparation of BBMVs was performed according to the method of Murer et al. (Murer […]. Sodium/proton antiport in brush-border-membrane vesicles isolated from rat small intestine and kidney. 1976. J Am Soc Nephrol. 1998 January; 9 (1): 143-50). The ^33PO4 transport activity of the small-intestinal BBMVs was determined by the rapid filtration method. […] Then, ice-cold buffer C (110 mM NaCl, 1 mM KH2PO4, and 10 mM HEPES (pH 7.5)) was added to each reaction mixture, which was immediately suction-filtered through a Millipore filter. The filter was washed with buffer C, and each sample was then dissolved in a liquid scintillator. The amount of ^33PO4 uptake into BBMVs was measured using a liquid scintillation counter.

human NaPi-IIb = target: T1, human NaPi-IIb (Homo sapiens, UniProt O95436); assay: Inhibitory effect on 33PO4 uptake into human NaPi-IIb-expressing CHO cells; format: cell-based
T1 construct: expressed in transfected cells
T1 sequence (O95436 1-690): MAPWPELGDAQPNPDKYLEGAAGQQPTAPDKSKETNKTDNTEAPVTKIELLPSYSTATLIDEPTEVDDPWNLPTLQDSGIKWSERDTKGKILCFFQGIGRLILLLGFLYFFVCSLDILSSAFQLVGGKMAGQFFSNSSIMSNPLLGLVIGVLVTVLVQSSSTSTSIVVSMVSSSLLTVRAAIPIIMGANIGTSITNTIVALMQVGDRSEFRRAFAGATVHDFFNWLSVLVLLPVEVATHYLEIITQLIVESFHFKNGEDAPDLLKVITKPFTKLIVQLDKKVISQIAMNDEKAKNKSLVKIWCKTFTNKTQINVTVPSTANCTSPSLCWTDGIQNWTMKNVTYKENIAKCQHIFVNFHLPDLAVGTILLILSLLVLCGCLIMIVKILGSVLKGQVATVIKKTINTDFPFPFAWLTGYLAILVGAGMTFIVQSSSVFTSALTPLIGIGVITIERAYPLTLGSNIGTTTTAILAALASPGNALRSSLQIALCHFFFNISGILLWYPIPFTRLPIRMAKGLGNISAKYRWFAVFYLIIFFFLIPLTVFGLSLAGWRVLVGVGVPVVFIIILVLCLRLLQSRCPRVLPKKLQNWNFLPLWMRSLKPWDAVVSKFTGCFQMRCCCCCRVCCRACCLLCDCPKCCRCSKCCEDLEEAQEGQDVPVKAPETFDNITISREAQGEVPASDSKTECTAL
How it was run: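 Stable human NaPi-IIb CHO line (G418-selected), plated and cultured overnight; ³³PO4 added in buffer A and uptake run at room temperature. Cells washed with ice-cold buffer A, then uptake counted by liquid scintillation.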

SMILES | Rate of uptake inhibition (%) (1 μM) [1] | IC50 (human NaPi-IIb; read-out: IC50) [µM] | IC50 (human NaPi-IIb; read-out: IC50 against 33PO4 uptake into human NaPi-IIb-expressing cells) [µM]
C[C@]12CCCN1N(Cc1cccc(F)c1F)C(=O)C(C(=O)Nc1ccc(Br)c(F)c1F)=C2O [Example 32] | 73 | 2.8 | 
C[C@]12CCCN1N(Cc1cccc(F)c1F)C(=O)C(C(=O)Nc1cc(Br)c(Br)cc1F)=C2O [Example 33] | 77 | 6 | 
C[C@]12CCCN1N(Cc1cccc(F)c1)C(=O)C(C(=O)Nc1ccc(C(F)(F)F)cc1-c1cc(C(F)(F)F)ncn1)=C2O [Example 34] | 99 | 7 | 
C[C@]12CCCN1N(Cc1cccc(F)c1)C(=O)C(C(=O)Nc1ccc(Br)c(F)c1)=C2O [Example 35] | 79 | 12.6 | 
C[C@]12CCCN1N(Cc1cccc(F)c1)C(=O)C(C(=O)Nc1cc(F)c(Br)c(F)c1)=C2O [Example 36] | 80 | 6.1 | 
C[C@]12CCCN1N(Cc1cccc(F)c1Br)C(=O)C(C(=O)Nc1ccc(Br)c(F)c1)=C2O [Example 37] | 89 | 3.7 | 
C[C@]12CCCN1N(Cc1cccc(F)c1Br)C(=O)C(C(=O)Nc1ccc(Cl)cc1F)=C2O [Example 38] | 90 | 6.7 | 
Cc1nc(NC(=O)C2=C(O)[C@@]3(C)CCCN3N(Cc3cccc(F)c3Br)C2=O)ccc1Br [Example 39] | 90 | 8.5 | 
C[C@]12CCCN1N(Cc1cccc(F)c1Br)C(=O)C(C(=O)Nc1ccc(Br)c(C#N)c1)=C2O [Example 40] | 87 | 6.5 | 
C[C@]12CCCN1N(Cc1cccc(F)c1Br)C(=O)C(C(=O)Nc1ccc(Br)c(Cl)c1)=C2O [Example 41] | 84 | 6.6 | 
C[C@]12CCCN1N(Cc1cccc(F)c1Br)C(=O)C(C(=O)Nc1ccc(Br)c(C(F)(F)F)c1)=C2O [Example 42] | 67 | 5 | 
C[C@]12CCCN1N(Cc1cccc(F)c1Br)C(=O)C(C(=O)Nc1cccc(Cl)c1F)=C2O [Example 43] | 79 | 8.3 | 
C[C@]12CCCN1N(Cc1cccc(F)c1F)C(=O)C(C(=O)Nc1ccc(C(F)(F)F)cc1-c1cc(C#N)ccn1)=C2O [Example 45] | 73 | 13 | 
C[C@]12CCCN1N(Cc1cccc(F)c1F)C(=O)C(C(=O)Nc1ccc(C(F)(F)F)cc1-c1cccc(C#N)c1F)=C2O [Example 46] | 71 | 14.1 | 
Cc1c(-c2cc(C(F)(F)F)ccc2NC(=O)C2=C(O)[C@@]3(C)CCCN3N(Cc3cccc(F)c3F)C2=O)ccnc1Cl [Example 47] | 91 | 7.1 | 
C[C@]12CCCN1N(Cc1cccc(F)c1F)C(=O)C(C(=O)Nc1ccc(C(F)(F)F)cc1-c1cccc(F)c1C#N)=C2O [Example 48] | 87 | 16.3 | 
COc1c(Cl)ncnc1-c1cc(C(F)(F)F)ccc1NC(=O)C1=C(O)[C@@]2(C)CCCN2N(Cc2cccc(F)c2F)C1=O [Example 49] | 85 | 12.9 | 

SMILES | Rate of uptake inhibition (%) (1 μM) [1] | IC50 (human NaPi-IIb; read-out: IC50) [µM] | IC50 (human NaPi-IIb; read-out: IC50 against 33PO4 uptake into human NaPi-IIb-expressing cells) [µM]
Cc1cc(S(=O)(=O)N(C)C)ccc1-c1cc(C(F)(F)F)ccc1NC(=O)C1=C(O)[C@@]2(C)CCCN2N(Cc2cccc(F)c2F)C1=O [Example 50] | 79 | 8.3 | 
C[C@]12CCCN1N(Cc1cccc(C#N)c1)C(=O)C(C(=O)Nc1ccc(C(F)(F)F)cc1-c1cnc(Cl)c(C#N)c1)=C2O [Example 51] | 72 | 16 | 
C[C@]12CCCN1N(Cc1ccc(OCCN3CCOCC3)c(F)c1F)C(=O)C(C(=O)Nc1ccc(C(F)(F)F)cc1-c1ncnc(C#N)c1Cl)=C2O [Example 53] | 72 | 9.5 | 
CSc1ncc(-c2nc(C(F)(F)F)ccc2NC(=O)C2=C(O)[C@@]3(C)CCCN3N(Cc3cccc(F)c3F)C2=O)cn1 [Example 54] | 72 | 2.3 | 
COc1nc(C#N)ncc1-c1cc(C(F)(F)F)ccc1NC(=O)C1=C(O)[C@@]2(C)CCCN2N(Cc2ccc(OCCN3CCOCC3)c(F)c2F)C1=O [Example 55] | 85 | 15.3 | 
COc1nc(C#N)ncc1-c1cc(C(F)(F)F)ccc1NC(=O)C1=C(O)[C@@]2(C)CCCN2N(Cc2cccc(F)c2F)C1=O [Example 56] | 88 | 7.2 | 
C[C@]12CCCN1N(Cc1cccc(F)c1F)C(=O)C(C(=O)Nc1ccc(C(F)(F)F)cc1-c1cnc(C#N)cn1)=C2O [Example 57] | 71 | 10.3 | 
C[C@]12CCCN1N(Cc1ccc(OCCN3CCOCC3)c(F)c1F)C(=O)C(C(=O)Nc1ccc(C(F)(F)F)nc1-c1ccccc1OC(F)(F)F)=C2O [Example 59] | 84 | 7.4 | 
C[C@]12CCCN1N(Cc1ccc(OCCN3CCOCC3)c(F)c1F)C(=O)C(C(=O)Nc1ccc(C(F)(F)F)nc1-c1ccc(OC(F)(F)F)cc1)=C2O [Example 60] | 78 | 8.8 | 
CC1(C)CC[C@]2(C)C(O)=C(C(=O)Nc3ccc(C(F)(F)F)cc3-c3ccc(C(F)(F)F)nc3)C(=O)N(Cc3cccc(F)c3F)N12 [Example 61] | 71 | 5.6 | 
CSc1ncc(-c2cc(C(F)(F)F)ccc2NC(=O)C2=C(O)[C@@]3(C)CCC(C)(C)N3N(Cc3cccc(F)c3F)C2=O)cn1 [Example 62] | 73 | 6.4 | 
C[C@]12CCCN1N(Cc1cccc(F)c1F)C(=O)C(C(=O)Nc1ccc(C(F)(F)F)cc1-c1ccc(C#N)nc1)=C2O [Example 94] | 73 | 8.8 | 
C[C@]12CCCN1N(Cc1cccc(F)c1F)C(=O)C(C(=O)Nc1ccc(C(F)(F)F)cc1-c1cnc(C#N)nc1)=C2O [Example 95] | 80 | 5.4 | 
CSc1ncc(-c2cc(C(F)(F)F)ccc2NC(=O)C2=C(O)[C@@]3(C)CCCN3N(Cc3cccc(F)c3F)C2=O)cn1 [Example 96] | 83 | 2.8 | 
CSc1ccc(-c2cc(C(F)(F)F)ccc2NC(=O)C2=C(O)[C@@]3(C)CCCN3N(Cc3cccc(F)c3F)C2=O)cn1 [Example 97] | 89 | 2.7 | 
COC(=O)c1cc(-c2cc(C(F)(F)F)ccc2NC(=O)C2=C(O)[C@@]3(C)CCCN3N(Cc3cccc(F)c3F)C2=O)nc(Cl)n1 [Example 98] | 53 | 10.6 | 
CN1N(Cc2ccc(OCC[N+]34CCN(CC3)CC4)c(F)c2F)C(=O)C(C(=O)Nc2ccc(C(F)(F)F)cc2-c2cc(C(F)(F)F)ncn2)=C(O)C12CCCC2 [Example 415, 1-(2-(2,3-Difluoro-4-((10-hydroxy-6-methyl-8-oxo-9-((4-(trifluoromethyl)-2-(6-(trifluoromethyl)pyrimidin-4-yl)phenyl)carbamoyl)-6,7-diazaspiro[4.5]dec-9-en-7-yl)methyl)phenoxy)ethyl)-1,4-diazabicyclo[2.2.2]octan-1-ium formate] | 21 |  | 18.5
